Results published in US20110190365A1, “Insecticidal 4-phenyl-1H-pyrazoles” (Bayer Crop Science AG, priority 2008, published 2011).

Key:
[1] = log P by HPLC on a reversed-phase column (C18), EEC Directive 79/831 Annex V.A8; type: physicochemical; settings: for chromatographic logP: read-out: log P (HCOOH)
Method: The stated log P values were determined in accordance with EEC Directive 79/831 Annex V.A8 by HPLC (High Performance Liquid Chromatography) using a reversed-phase column (C18).

[2] = tested on: larvae of the mustard beetle (Phaedon cochleariae); test: Phaedon cochleariae test (PHAECO spray treatment); type: in vivo; settings: application rate 500 g/ha, Chinese cabbage leaf discs sprayed, after 7 days; for pest or weed control at 500 g/ha: Phaedon cochleariae, foliar, 168 h, read-out: effect in % (beetle larvae killed)
Method: Phaedon cochleariae Test (PHAECO Spray Treatment)
Solvent: 78.0 parts by weight of acetone • • 1.5 parts by weight of dimethylformamide Emulsifier: 0.5 part by weight of alkylaryl polyglycol ether
To produce a suitable preparation of active compound, 1 part by weight of active compound is mixed with the stated amounts of solvent and emulsifier, and the concentrate is diluted with emulsifier-containing water to the desired concentration.
Discs of Chinese cabbage (Brassica pekinensis) are sprayed with an active compound preparation of the desired concentration and, after drying, populated with larvae of the mustard beetle (Phaedon cochleariae).
After 7 days, the effect in % is determined. 100% means that all beetle larvae have been killed; 0% means that none of the beetle larvae have been killed.

[3] = HPLC, reversed-phase C18, mobile phase with formic acid
[4] = HCOOH, Table 4, compounds of formula I-A-Q4

SMILES	log P (HCOOH) ([1]; HCOOH)	further results
Cc1cc(-n2nc(C(F)(F)F)c(-c3cc(Cl)cc(Cl)c3)c2N)ccc1C(=O)NCc1ccccn1 [I-A-Q2-012, 4-[5-Amino-4-(3,5-dichlorophenyl)-3-trifluoromethylpyrazol-1-yl]-2-methyl-N-pyridin-2-ylmethylbenzamide]		chromatographic logP [1, 3]: 3.35; pest or weed control at 500 g/ha [2]: > 80%
N#Cc1cc(-n2nc(C(F)(F)F)c(-c3cc(Cl)cc(C(F)(F)F)c3)c2N)ccc1F [I-A-Q4-009, 5-[5-Amino-4-(3-chloro-5-trifluoromethylphenyl)-3-trifluoromethylpyrazol-1-yl]-2-fluorobenzonitrile]		chromatographic logP [1, 3]: 4.54; pest or weed control at 500 g/ha [2]: > 80%
Cc1cc(-n2nc(C(F)(F)F)c(-c3ccccc3Br)c2N)ccc1C(=O)NCc1ncccn1 [I-A-Q2-419]	I-A-Q2-419: log P (HCOOH): 2.68	effect in % (beetle larvae killed) [2]: 100%
COC(=O)c1ccc(-n2nc(C(F)(F)F)c(-c3cc(Cl)cc(Cl)c3)c2N)cc1C [I-A-Q4-011, Methyl 4-[5-amino-4-(3,5-dichlorophenyl)-3-trifluoromethylpyrazol-1-yl]-2-methylbenzoate]		chromatographic logP [1, 3]: 5.08; pest or weed control at 500 g/ha [2]: > 80%
Cc1cc(-n2nc(C(F)(F)F)c(-c3ccccc3Br)c2N)ccc1C(=O)NCc1ccccn1 [I-A-Q2-421]	I-A-Q2-421: log P (HCOOH): 2.53	effect in % (beetle larvae killed) [2]: 100%
CC[S+]([O-])c1ccn(-c2ccc(-n3nc(C(F)(F)F)c(-c4cc(Cl)cc(Cl)c4)c3N)cc2C#N)n1 (centres unmarked) [I-A-Q1-090]		log P (HCOOH) [1, 3]: I-A-Q1-090: log P (HCOOH): 3.47; effect in % (beetle larvae killed) [2]: 100%
Cc1cc(-n2nc(C(F)(F)F)c(-c3ccccc3Cl)c2N)ccc1C(=O)NC(C)c1ccccn1 (centres unmarked) [I-A-Q2-415]	I-A-Q2-415: log P (HCOOH): 2.71	effect in % (beetle larvae killed) [2]: 100%
Cc1cc(-n2nc(C(F)(F)F)c(-c3cccc(Br)c3)c2N)ccc1C(=O)NCc1ncccn1 [I-A-Q2-417]	I-A-Q2-417: log P (HCOOH): 3.13	effect in % (beetle larvae killed) [2]: 100%
Cc1cc(-n2nc(C(F)(F)F)c(-c3ccccc3Br)c2N)ccc1C(=O)NC(C)c1ccccn1 (centres unmarked) [I-A-Q2-420]	I-A-Q2-420: log P (HCOOH): 2.81	effect in % (beetle larvae killed) [2]: 100%
Cc1cc(-n2nc(C(F)(F)F)c(-c3cc(Cl)cc(Cl)c3)c2I)ccc1C(=O)NCc1ccccn1 [I-A-Q2-025, 4-[4-(3,5-Dichlorophenyl)-5-iodo-3-trifluoromethylpyrazol-1-yl]-2-methyl-N-pyridin-2-ylmethylbenzamide]		chromatographic logP [1, 3]: 4.29; pest or weed control at 500 g/ha [2]: > 80%
Cc1cc(-n2nc(C(F)(F)F)c(-c3cc(Cl)cc(Cl)c3)c2Br)ccc1C(=O)NC(C)C(F)(F)F (centres unmarked) [I-A-Q2-024, 4-[5-Bromo-4-(3,5-dichlorophenyl)-3-trifluoromethylpyrazol-1-yl]-2-methyl-N-(2,2,2-trifluoro-1-mmethylethyl)benzamide]		chromatographic logP [1, 3]: 5.53; pest or weed control at 500 g/ha [2]: > 80%
Cc1cc(-n2nc(C(F)(F)F)c(-c3ccccc3Cl)c2N)ccc1C(=O)NCc1ncccn1 [I-A-Q2-414]	I-A-Q2-414: log P (HCOOH): 2.72	effect in % (beetle larvae killed) [2]: 100%
C=CCNC(=O)c1ccc(-n2nc(C(F)(F)F)c(-c3cc(Cl)cc(Cl)c3)c2N)nc1 [I-A-Q2-104]	I-A-Q2-104: log P (HCOOH): 4.46	
CNC(=O)c1ccc(-n2nc(C(F)(F)F)c(-c3ccccc3Cl)c2N)cc1 [I-A-Q2-082]	I-A-Q2-082: log P (HCOOH): 2.46	
Nc1c(-c2cc(Cl)cc(Cl)c2)c(C(F)(F)F)nn1-c1ccc(C(=O)NCc2ccccc2)cc1 [I-A-Q2-152]	I-A-Q2-152: log P (HCOOH): 4.45	
N#Cc1cc(-n2nc(C(F)(F)C(F)(F)F)c(-c3cc(C(F)(F)F)cc(C(F)(F)F)c3)c2N)ccc1-n1cncn1 [I-A-Q1-050]		log P (HCOOH) [1, 3]: I-A-Q1-050: log P (HCOOH): 4.34
Cc1cc(-n2nc(C3CCCO3)c(-c3cc(Cl)cc(C(F)(F)F)c3)c2N)ccc1C(=O)NCC(F)(F)C(F)F (centres unmarked) [I-A-Q2-290]	I-A-Q2-290: log P (HCOOH): 4.00	
Cc1cc(-n2nc(C(F)(F)F)c(-c3cc(Cl)cc(Cl)c3)c2N)ccc1C(=O)NCCO [I-A-Q2-272]	I-A-Q2-272: log P (HCOOH): 3.24	
CC(NC(=O)c1ccc(-n2nc(-c3ccccc3)c(-c3ccc(Cl)cc3)c2N)cc1)c1ccccc1 (centres unmarked) [I-A-Q2-077]	I-A-Q2-077: log P (HCOOH): 4.17	
CC(NC(=O)c1ccc(-n2nc(C(F)(F)F)c(-c3cc(F)c(F)c(F)c3)c2N)cc1)c1ccccn1 (centres unmarked) [I-A-Q2-196]	I-A-Q2-196: log P (HCOOH): 2.84	
Nc1c(-c2ccc(Cl)c(Cl)c2)c(C(F)(F)F)nn1-c1ccc(C(=O)NCC(F)F)cc1 [I-A-Q2-159]	I-A-Q2-159: log P (HCOOH): 3.65	
Cc1cc(-n2nc(C(F)(F)F)c(-c3cc(Cl)cc(Cl)c3)c2N)ccc1C(=O)NCc1cc(F)ccc1F [I-A-Q2-046]	I-A-Q2-046: log P (HCOOH): 4.51	

SMILES	log P (HCOOH) ([1]; HCOOH)	further results
COC(=O)CC(NC(=O)c1ccc(-n2nc(C(F)(F)F)c(-c3cc(Cl)cc(Cl)c3)c2N)cc1C)c1ccccn1 (centres unmarked) [I-A-Q2-057]	I-A-Q2-057: log P (HCOOH): 2.72	
Nc1c(-c2ccc(Cl)c(F)c2)c(C(F)(F)F)nn1-c1ccc(C(=O)O)cc1 [I-A-Q4-093]		log P (HCOOH) [1, 4]: I-A-Q4-093: log P (HCOOH): 3.39
Cc1cc(-n2nc(C)c(-c3ccc(F)cc3)c2N)ccc1C(=O)NCC(F)(F)C(F)F [I-A-Q2-326]	I-A-Q2-326: log P (HCOOH): 2.51	
Cc1cc(-n2nc(C(F)(F)F)c(-c3cc(F)c(F)c(F)c3)c2N)ccc1C(=O)NCc1ccccn1 [I-A-Q2-358]	I-A-Q2-358: log P (HCOOH): 2.80	
CC(NC(=O)c1ccc(-n2nc(C(F)(F)F)c(-c3ccc(Cl)c(F)c3)c2N)cc1)C(F)(F)F (centres unmarked) [I-A-Q2-166]	I-A-Q2-166: log P (HCOOH): 3.84	
Cc1cc(-n2nc(C(F)(F)F)c(-c3cc(Cl)cc(Cl)c3)c2N)ccc1C(=O)NCC(F)(F)F [I-A-Q2-014]	I-A-Q2-014: log P (HCOOH): 4.34	
Cc1cc(-n2nc(C(F)(F)F)c(-c3ccccc3Br)c2N)ccc1C(=O)NCC1CC1 [I-A-Q2-422]	I-A-Q2-422: log P (HCOOH): 3.41	
Nc1c(-c2cc(Cl)cc(Cl)c2)c(C(F)(F)F)nn1-c1ccc(C(=O)NCc2ncccn2)cc1 [I-A-Q2-137]	I-A-Q2-137: log P (HCOOH): 3.40	
Cc1cnc(CNC(=O)c2ccc(-n3nc(C(F)(F)F)c(-c4cc(Cl)cc(Cl)c4)c3N)cc2C)c(C)c1 [I-A-Q2-038]	I-A-Q2-038: log P (HCOOH): 3.11	
Nc1c(-c2cc(Cl)cc(Cl)c2)c(C(F)(F)F)nn1-c1ccc(C(=O)NC2CCC2)cc1 [I-A-Q2-141]	I-A-Q2-141: log P (HCOOH): 4.21	
Cc1cc(-n2nc(C(F)F)c(-c3ccc(F)cc3F)c2N)ccc1C(=O)NCc1ccccn1 [I-A-Q2-361]	I-A-Q2-361: log P (HCOOH): 1.91	
Cc1cc(-n2nc(C(F)(F)F)c(-c3ccc(C#N)cc3)c2N)ccc1C(=O)NCC(F)(F)C(F)F [I-A-Q2-306]	I-A-Q2-306: log P (HCOOH): 3.24	
CC(NC(=O)c1ccc(-n2nc(C(F)(F)F)c(-c3ccc(Cl)cc3)c2N)cc1)C(F)(F)F (centres unmarked) [I-A-Q2-153]	I-A-Q2-153: log P (HCOOH): 3.89	
N#Cc1cc(-n2nc(C(F)(F)F)c(-c3c(F)cc(F)cc3F)c2N)ccc1-n1cncn1 [I-A-Q1-034]		log P (HCOOH) [1, 3]: I-A-Q1-034: log P (HCOOH): 3.10
Cc1cc(-n2nc(C)c(-c3cccc(Cl)c3)c2N)ccc1C(=O)NCc1ccccn1 [I-A-Q2-371]	I-A-Q2-371: log P (HCOOH): 1.88	
Nc1c(-c2ccc(Cl)cc2Cl)c(C(F)(F)F)nn1-c1ccc(Cl)cn1 [I-A-Q4-044]		log P (HCOOH) [1, 4]: I-A-Q4-044: log P (HCOOH): 5.02
Nc1c(-c2cc(F)cc(Cl)c2)c(C(F)(F)F)nn1-c1ccc(C(=O)NCC(F)(F)F)cc1 [I-A-Q2-086]	I-A-Q2-086: log P (HCOOH): 3.68	
Cc1cc(-n2nc(C(F)(F)F)c(-c3cc(Cl)cc(Cl)c3)c2N)ccc1C(=O)NCc1cccc(F)c1 [I-A-Q2-214]	I-A-Q2-214: log P (HCOOH): 4.45	
COC(=O)c1ccc(-n2nc(C(F)(F)F)c(-c3cc(Cl)cc(Cl)c3)c2N)cc1Cl [I-A-Q4-104]		log P (HCOOH) [1, 4]: I-A-Q4-104: log P (HCOOH): 5.07
Cc1cc(-n2nc(C(F)(F)F)c(-c3cc(F)cc(F)c3)c2N)ccc1C(=O)NCC(F)(F)C(F)F [I-A-Q2-315]	I-A-Q2-315: log P (HCOOH): 3.37	
Cc1cc(-n2nc(C(F)(F)F)c(-c3cc(Cl)cc(Cl)c3)c2N)ccc1C(=O)NC1CCOCC1 [I-A-Q2-250]	I-A-Q2-250: log P (HCOOH): 3.68	
CC(NC(=O)c1ccc(-n2nc(C(F)(F)F)c(-c3cc(Cl)cc(Cl)c3)c2N)cc1)c1ccccn1 (centres unmarked) [I-A-Q2-147]	I-A-Q2-147: log P (HCOOH): 3.47	
